Experimental data as given in US10065970B2 (Genentech, Inc., priority 2015, dated 2018).
Like-named read-outs stand apart in the source and are kept apart here.

Biological target: PI3Kα (alpha) (Homo sapiens (Human), UniProt P42336)
Experiment: p110α (alpha) PI3K Binding Assay (ADP-Glo lipid kinase reaction)
Type: biochemical
Conditions: read-out: PI3Kα-(alpha) ATP (Ki) micromolar
In short: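 Enzyme with PIP2:3PS lipid substrate and ATP/MgCl2 in 50 mM HEPES, 50 mM NaCl, 3 mM MgCl2, 0.01% BSA, 1% DMSO, 120 min at room temperature. ADP formed detected by ADP-Glo luminescence. Ki from 10-point dose-response curves via the Morrison equation.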

[1] = PI3K alpha 0.2 nM, ATP 40 μM, PIP2:3PS 50 μM, 120 min, room temperature, Ki by Morrison Equation

Chain of PI3Kα (alpha) (P42336 whole entry): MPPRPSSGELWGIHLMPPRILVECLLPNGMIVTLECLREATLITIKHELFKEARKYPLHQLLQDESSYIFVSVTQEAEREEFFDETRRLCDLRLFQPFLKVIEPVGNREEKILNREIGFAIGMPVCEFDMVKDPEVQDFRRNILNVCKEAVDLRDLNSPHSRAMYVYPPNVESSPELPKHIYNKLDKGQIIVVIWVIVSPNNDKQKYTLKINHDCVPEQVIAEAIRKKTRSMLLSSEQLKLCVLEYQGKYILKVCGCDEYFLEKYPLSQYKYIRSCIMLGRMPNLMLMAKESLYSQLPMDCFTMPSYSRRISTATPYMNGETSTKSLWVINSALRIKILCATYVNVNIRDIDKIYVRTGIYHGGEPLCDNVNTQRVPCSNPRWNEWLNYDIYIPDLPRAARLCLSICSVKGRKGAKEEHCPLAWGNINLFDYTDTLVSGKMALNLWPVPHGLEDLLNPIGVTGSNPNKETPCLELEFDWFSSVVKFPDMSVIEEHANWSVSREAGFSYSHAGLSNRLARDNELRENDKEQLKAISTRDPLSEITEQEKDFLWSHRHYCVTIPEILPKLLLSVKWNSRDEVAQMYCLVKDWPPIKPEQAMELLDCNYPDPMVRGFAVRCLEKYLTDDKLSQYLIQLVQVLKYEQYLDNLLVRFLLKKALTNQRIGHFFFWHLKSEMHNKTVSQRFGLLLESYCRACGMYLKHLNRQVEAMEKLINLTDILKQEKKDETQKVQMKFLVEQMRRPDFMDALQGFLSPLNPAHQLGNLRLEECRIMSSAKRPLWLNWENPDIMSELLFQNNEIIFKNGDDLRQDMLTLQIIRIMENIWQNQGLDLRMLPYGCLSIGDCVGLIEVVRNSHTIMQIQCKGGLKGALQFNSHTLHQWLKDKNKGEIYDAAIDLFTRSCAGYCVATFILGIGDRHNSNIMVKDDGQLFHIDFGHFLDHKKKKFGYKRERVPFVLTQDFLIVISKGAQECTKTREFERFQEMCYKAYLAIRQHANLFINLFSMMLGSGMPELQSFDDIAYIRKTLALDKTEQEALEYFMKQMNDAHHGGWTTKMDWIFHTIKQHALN
Chain of PI3Kα (alpha) (P27986 whole entry partner): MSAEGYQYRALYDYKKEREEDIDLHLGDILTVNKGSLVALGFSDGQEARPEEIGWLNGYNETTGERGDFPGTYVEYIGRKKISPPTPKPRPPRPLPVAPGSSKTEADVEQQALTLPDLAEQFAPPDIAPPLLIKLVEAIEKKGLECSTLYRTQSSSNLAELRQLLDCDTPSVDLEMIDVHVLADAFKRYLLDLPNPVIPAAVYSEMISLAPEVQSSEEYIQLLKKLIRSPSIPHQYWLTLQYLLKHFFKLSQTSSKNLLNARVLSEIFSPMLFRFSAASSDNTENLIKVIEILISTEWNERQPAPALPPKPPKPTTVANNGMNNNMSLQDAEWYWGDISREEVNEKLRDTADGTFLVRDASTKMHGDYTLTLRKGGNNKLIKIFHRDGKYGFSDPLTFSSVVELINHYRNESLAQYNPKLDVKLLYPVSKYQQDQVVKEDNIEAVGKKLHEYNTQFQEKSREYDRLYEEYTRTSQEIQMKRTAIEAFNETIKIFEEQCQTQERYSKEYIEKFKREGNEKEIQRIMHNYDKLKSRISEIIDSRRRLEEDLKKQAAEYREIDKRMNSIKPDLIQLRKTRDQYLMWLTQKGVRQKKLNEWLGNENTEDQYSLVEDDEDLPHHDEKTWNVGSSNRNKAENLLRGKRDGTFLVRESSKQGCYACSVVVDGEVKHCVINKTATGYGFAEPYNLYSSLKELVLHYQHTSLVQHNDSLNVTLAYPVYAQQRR

| Ki [1] | Ki | Compound |
| --- | --- | --- |
| 0.09 nM | – | C[C@H](Oc1cc2c3c(c1)nc(-c1cc(F)c4oc(N)nc4c1)n3CCCO2)C(N)=O [Example 258, (S)-2-((1-(2-Amino-7-fluorobenzo[d]oxazol-5-yl)-8,9-dihydro-7H-6-oxa-2,9a-diazabenzo[cd]azulen-4-yl)oxy)propanamide] |
| < 0.02 nM | – | C[C@H](Oc1cc2c3c(c1)nc(-c1cc(F)c4oc(N)nc4c1F)n3CCCCO2)C(N)=O [Example 261, (S)-2-((1-(2-Amino-4,7-difluorobenzo[d]oxazol-5-yl)-7,8,9,10-tetrahydro-6-oxa-2,10a-diazacycloocta[cd]inden-4-yl)oxy)propanamide] |
| 1.95 nM | – | NC(=O)[C@@H]1COCCN1c1cc2c3c(c1)nc(-c1ccc4nc(N)sc4c1)n3CCCCO2 [Example 262, (S)-4-(1-(2-Aminobenzo[d]thiazol-6-yl)-7,8,9,10-tetrahydro-6-oxa-2,10a-diazacycloocta[cd]inden-4-yl)morpholine-3-carboxamide] |
| 0.346 nM | – | C[C@@H](Oc1cc2c3c(c1)nc(-c1cc(F)c4oc(N)nc4c1)n3CCCO2)C(N)=O [Example 263, (R)-2-((1-(2-Amino-7-fluorobenzo[d]oxazol-5-yl)-8,9-dihydro-7H-6-oxa-2,9a-diazabenzo[cd]azulen-4-yl)oxy)propanamide] |
| < 0.02 nM | – | C[C@@H](C(N)=O)N(C)c1cc2c3c(c1)nc(-c1cc(F)c4oc(N)nc4c1)n3CCCCO2 [Example 264, (S)-2-((1-(2-Amino-7-fluorobenzo[d]oxazol-5-yl)-7,8,9,10-tetrahydro-6-oxa-2,10a-diazacycloocta[cd]inden-4-yl)(methyl)amino)propanamide] |
| < 0.02 nM | – | C[C@H](Oc1cc2c3c(c1)nc(-c1ccc4nc(N)sc4n1)n3CCCCO2)C(N)=O [Example 265, (S)-2-((1-(2-Aminothiazolo[5,4-b]pyridin-5-yl)-7,8,9,10-tetrahydro-6-oxa-2,10a-diazacycloocta[cd]inden-4-yl)oxy)propanamide] |
| 0.108 nM | – | C[C@H](Oc1cc2c3c(c1)nc(-c1ccc4oc(N)nc4n1)n3CCCO2)C(N)=O [Example 266, (S)-2-((1-(2-Aminooxazolo[4,5-b]pyridin-5-yl)-8,9-dihydro-7H-6-oxa-2,9a-diazabenzo[cd]azulen-4-yl)oxy)propanamide] |
| < 0.02 nM | – | C[C@H](Oc1cc2c3c(c1)nc(-c1ccc(-c4nc[nH]n4)c(F)c1)n3CCCCO2)C(N)=O [Example 269, (S)-2-((1-(3-Fluoro-4-(1H-1,2,4-triazol-3-yl)phenyl)-7,8,9,10-tetrahydro-6-oxa-2,10a-diazacycloocta[cd]inden-4-yl)oxy)propanamide] |
| < 0.02 nM | – | CC[C@H](Oc1cc2c3c(c1)nc(-c1ccc4oc(N)nc4c1)n3CCCCO2)C(N)=O [Example 271, (S)-2-((1-(2-Aminobenzo[d]oxazol-5-yl)-7,8,9,10-tetrahydro-6-oxa-2,10a-diazacycloocta[cd]inden-4-yl)oxy)butanamide] |
| < 0.02 nM | – | CC[C@H](Oc1cc2c3c(c1)nc(-c1cc(F)c4oc(N)nc4c1)n3CCCCO2)C(N)=O [Example 272, (S)-2-((1-(2-Amino-7-fluorobenzo[d]oxazol-5-yl)-7,8,9,10-tetrahydro-6-oxa-2,10a-diazacycloocta[cd]inden-4-yl)oxy)butanamide] |
| 0.0494 nM | – | CC[C@H](Oc1cc2c3c(c1)nc(-c1cc(F)c4nc(N)sc4c1)n3CCCCO2)C(N)=O [Example 273, (S)-2-((1-(2-Amino-4-fluorobenzo[d]thiazol-6-yl)-7,8,9,10-tetrahydro-6-oxa-2,10a-diazacycloocta[cd]inden-4-yl)oxy)butanamide] |
| 2.1 nM | – | C[C@H](Oc1cc2c3c(c1)nc(-c1ccc4nc(N)sc4c1)n3CCCO2)C(N)=O [Example 274, (S)-2-((1-(2-Aminobenzo[d]thiazol-6-yl)-8,9-dihydro-7H-6-oxa-2,9a-diazabenzo[cd]azulen-4-yl)oxy)propanamide] |
| 0.062 nM | – | C[C@H](Oc1cc2c3c(c1)nc(-c1cc(F)c4sc(N)nc4c1)n3CCCCO2)C(N)=O [Example 285, (S)-2-((1-(2-Amino-7-fluorobenzo[d]thiazol-5-yl)-7,8,9,10-tetrahydro-6-oxa-2,10a-diazacycloocta[cd]inden-4-yl)oxy)propanamide] |
| 0.024 nM | – | C[C@H](Oc1cc2c3c(c1)nc(-c1ccc4nc(N)nnc4c1)n3CCCCO2)C(N)=O [Example 292, (S)-2-((1-(3-Aminobenzo[e][1,2,4]triazin-7-yl)-7,8,9,10-tetrahydro-6-oxa-2,10a-diazacycloocta[cd]inden-4-yl)oxy)propanamide] |
| 0.0222 nM | – | C[C@H](Oc1cc2c3c(c1)nc(-c1ccc(-c4ncn[nH]4)cc1F)n3CCCCO2)C(N)=O [Example 293, (S)-2-((1-(2-Fluoro-4-(1H-1,2,4-triazol-3-yl)phenyl)-7,8,9,10-tetrahydro-6-oxa-2,10a-diazacycloocta[cd]inden-4-yl)oxy)propanamide] |
| < 0.02 nM | – | NC(=O)[C@@H]1[C@@H](F)CCN1c1cc2c3c(c1)nc(-c1ccc4oc(N)nc4c1)n3CCCCO2 [Example 294, (2R,3S)-1-(1-(2-Aminobenzo[d]oxazol-5-yl)-7,8,9,10-tetrahydro-6-oxa-2,10a-diazacycloocta[cd]inden-4-yl)-3-fluoropyrrolidine-2-carboxamide] |
| 0.053 nM | – | CC[C@H](Oc1cc2c3c(c1)nc(-c1cc(F)c(-c4ncn[nH]4)cc1F)n3CCCCO2)C(N)=O [Example 295, (S)-2-((1-(2,5-Difluoro-4-(1H-1,2,4-triazol-5-yl)phenyl)-7,8,9,10-tetrahydro-6-oxa-2,10a-diazacycloocta[cd]inden-4-yl)oxy)butanamide] |
| < 0.02 nM | – | C[C@H](Oc1cc2c3c(c1)nc(-c1ccc(-c4ncn[nH]4)cn1)n3CCCCO2)C(N)=O [Example 296, (S)-2-((1-(5-(1H-1,2,4-Triazol-5-yl)pyridin-2-yl)-7,8,9,10-tetrahydro-6-oxa-2,10a-diazacycloocta[cd]inden-4-yl)oxy)propanamide] |
| 2.23 nM | – | C[C@H](Oc1cc2c3c(c1)nc(-c1ccc4oc(N)nc4c1)n3CCCCO2)C(=O)O [Example 297, (S)-2-((1-(2-Aminobenzo[d]oxazol-5-yl)-7,8,9,10-tetrahydro-6-oxa-2,10a-diazacycloocta[cd]inden-4-yl)oxy)propanoic acid] |
| < 0.02 nM | – | C[C@H](Oc1cc2c3c(c1)nc(-c1cnc(-c4ncn[nH]4)c(F)c1)n3CCCCO2)C(N)=O [Example 307, (S)-2-((1-(5-Fluoro-6-(1H-1,2,4-triazol-5-yl)pyridin-3-yl)-7,8,9,10-tetrahydro-6-oxa-2,10a-diazacycloocta[cd]inden-4-yl)oxy)propanamide] |
| – | 0.627 nM | C[C@H]1CCN(c2cc3c4c(c2)nc(-c2ccc5oc(N)nc5c2)n4CCCO3)[C@@H]1C(N)=O [Example 308, (2S,3S)-1-(1-(2-Aminobenzo[d]oxazol-5-yl)-8,9-dihydro-7H-6-oxa-2,9a-diazabenzo[cd]azulen-4-yl)-3-methylpyrrolidine-2-carboxamide] |
| 0.04 nM | – | C[C@H]1CCN(c2cc3c4c(c2)nc(-c2ccc5oc(N)nc5c2)n4CCCCO3)[C@@H]1C(N)=O [Example 309, (2S,3S)-1-(1-(2-Aminobenzo[d]oxazol-5-yl)-7,8,9,10-tetrahydro-6-oxa-2,10a-diazacycloocta[cd]inden-4-yl)-3-methylpyrrolidine-2-carboxamide] |
| 0.171 nM | – | CO[C@@H]1CCN(c2cc3c4c(c2)nc(-c2ccc5oc(N)nc5c2)n4CCCCO3)[C@@H]1C(N)=O [Example 310, (2S,3R)-1-(1-(2-Aminobenzo[d]oxazol-5-yl)-7,8,9,10-tetrahydro-6-oxa-2,10a-diazacycloocta[cd]inden-4-yl)-3-methoxypyrrolidine-2-carboxamide] |
| 2.09 nM | – | CC[C@H](Oc1cc2c3c(c1)nc(-c1ccc4oc(N)nc4c1)n3CCCCO2)C(=O)O [Example 313, (S)-2-((1-(2-Aminobenzo[d]oxazol-5-yl)-7,8,9,10-tetrahydro-6-oxa-2,10a-diazacycloocta[cd]inden-4-yl)oxy)butanoic acid] |
